{"source": "patent US20120258174A1", "about": "“Methods for Treating Bacterial Infection” (Innocoll Technologies Limited, priority 2011, published 2012)", "tested_on": "organisms isolated from the infected wounds at baseline", "assay": "Gentamicin MIC testing against all isolated pathogens up to 1024 μg/mL", "format": "cell-based", "conditions": "87 of 95 organisms isolated at baseline", "protocol": "Minimum inhibitory concentration (MIC) testing was performed on all isolated pathogens to determine susceptibility to systemic concentrations of levofloxacin, linezolid, vancomycin and oxacillin for gram-positive species and levofloxacin, aztreonam and piperacillin/tazobactam for gram-negative species. Definitive gentamicin MIC testing against all isolated pathogens up to 1024 μg/mL to mimic high local concentrations were also performed.", "data": [{"smiles": "CN[C@@H]1[C@@H](O)C(O[C@@H]2[C@@H](O)[C@H](O[C@H]3O[C@H]([C@@H](C)NC)CC[C@H]3N)[C@@H](N)C[C@H]2N)OC[C@]1(C)O", "note": "(stereo partly drawn) [gentamicin, (3R,4R,5R)-2-{[(1S,2S,3R,4S,6R)-4,6-diamino-3-{[(2R,3R,6S)-3-amino-6-[(1R)-1-(methylamino)ethyl]oxan-2-yl]oxy}-2-hydroxycyclohexyl]oxy}-5-methyl-4-(methylamino)oxane-3,5-diol]", "values": [{"measurement": "organisms whose gentamicin MIC would be exceeded by a local concentration of up to 1000 μg/mL", "value": 92, "unit": "%"}]}]}
